Values of other authors, collected in patent US20060275215A1, “Novel imaging agents” (priority 2003, published 2006).

Assays:
caspase-3 = biological target: T1, caspase-3 (Homo sapiens, UniProt P42574)
T1 sequence (P42574 29-175 limits assumed): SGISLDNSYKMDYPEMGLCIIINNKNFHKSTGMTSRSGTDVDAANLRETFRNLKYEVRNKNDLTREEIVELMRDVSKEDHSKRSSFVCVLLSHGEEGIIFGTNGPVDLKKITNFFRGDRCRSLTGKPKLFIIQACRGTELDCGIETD
T1 sequence (P42574 176-277 limits assumed): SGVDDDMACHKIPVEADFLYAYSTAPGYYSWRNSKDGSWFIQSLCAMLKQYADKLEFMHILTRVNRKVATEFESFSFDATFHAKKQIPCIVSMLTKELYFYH

[1] = tested on: phosphatidylserine (PS) on the outer membrane of apoptotic cells; details: binding to phosphatidylserine on outer membrane of apoptotic cells; read-out: affinity
[2] = labelled with the radioisotope 131I

| Compound | IC50 for caspase-3 (caspase-3) | also measured |
| --- | --- | --- |
| CCOc1ccc(OCC(=O)O)cc1CC(=O)NC(C(=O)NC(CC(=O)O)C(=O)CSCc1c(F)cccc1Cl)C(C)C (stereo not drawn) [6A′] | low nanomolar range | – |
| CCOc1ccc(OCC(=O)OC)cc1CC(=O)NC(C(=O)NC(CC(=O)O)C(=O)CSCc1c(F)cccc1Cl)C(C)C (stereo not drawn) [Compound 6A] | low nanomolar range | – |
| CCOc1ccc(OCC(=O)OC(C)C)cc1CC(=O)NC(C(=O)NC(CC(=O)O)C(=O)CSCc1c(F)cccc1Cl)C(C)C (stereo not drawn) [Compound 6B] | low nanomolar range | – |
| CCOc1ccc(S(C)(=O)=O)cc1CC(=O)NC(C(=O)NC(CC(=O)O)C(=O)CSCc1c(F)cccc1Cl)C(C)C (stereo not drawn) [Compound 6C] | low nanomolar range | – |
| Annexin-5: endogenous human protein (RMM 36 kDa) which binds to phosphatidylserine | – | Kd [1]: ~1 nM |
| benzyloxycarbonyl-Val-Ala-DL-Asp(O-methyl)-fluoromethylketone [Z-VAD-fmk] | – | absolute cellular uptake [2]: low |
